Reference: ChEMBL document CHEMBL3612033, “Synthesis of 3,4-diaminobenzoyl derivatives as factor Xa inhibitors” (Eur J Med Chem, 2015)

Assays:
[1] = target: T1, Coagulation factor X (Oryctolagus cuniculus) (UniProt O19045); assay: Inhibition of F10a in rabbit plasma assessed as ratio of compound prothrombin time to vehicle control prothrombin time at 100 nM after 2 mins by automatic coagulation analyser
T1 sequence (whole entry): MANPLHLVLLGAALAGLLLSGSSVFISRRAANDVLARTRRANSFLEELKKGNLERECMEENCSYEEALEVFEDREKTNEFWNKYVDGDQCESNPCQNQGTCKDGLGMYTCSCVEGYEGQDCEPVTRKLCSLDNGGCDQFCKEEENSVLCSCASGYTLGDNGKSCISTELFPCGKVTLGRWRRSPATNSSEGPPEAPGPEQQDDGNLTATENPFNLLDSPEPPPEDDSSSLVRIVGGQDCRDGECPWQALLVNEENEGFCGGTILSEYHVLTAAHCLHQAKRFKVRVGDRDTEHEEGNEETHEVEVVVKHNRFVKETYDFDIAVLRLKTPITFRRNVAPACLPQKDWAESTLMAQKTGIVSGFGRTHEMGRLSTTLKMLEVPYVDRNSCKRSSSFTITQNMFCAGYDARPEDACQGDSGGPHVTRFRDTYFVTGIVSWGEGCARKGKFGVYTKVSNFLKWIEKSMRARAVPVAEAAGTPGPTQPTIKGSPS

Coagulation factor X = Coagulation factor X (Homo sapiens, UniProt P00742); assay: Inhibition of human F10a using S-2765 as substrate preincubated for 10 mins followed by substrate addition by microplate reader analysis
Coagulation factor X, sequence (P00742 41-179 limits assumed): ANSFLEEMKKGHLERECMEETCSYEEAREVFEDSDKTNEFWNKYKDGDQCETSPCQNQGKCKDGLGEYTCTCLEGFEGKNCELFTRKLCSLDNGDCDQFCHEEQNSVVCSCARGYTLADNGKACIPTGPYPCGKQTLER
Coagulation factor X, sequence (P00742 235-488 limits assumed): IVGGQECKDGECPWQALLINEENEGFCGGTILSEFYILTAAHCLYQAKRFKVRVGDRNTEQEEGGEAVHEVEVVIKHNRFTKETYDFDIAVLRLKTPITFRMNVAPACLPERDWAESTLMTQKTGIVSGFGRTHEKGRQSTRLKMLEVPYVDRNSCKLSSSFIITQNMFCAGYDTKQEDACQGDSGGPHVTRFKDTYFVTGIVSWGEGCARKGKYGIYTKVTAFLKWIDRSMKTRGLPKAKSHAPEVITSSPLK

Prothrombin = Prothrombin (Bos taurus, UniProt P00735); assay: Inhibition of bovine plasma thrombin using S-2238 as substrate
Trypsin = Trypsin (Homo sapiens, UniProt P07477+P07478+P35030); assay: Inhibition of trypsin (unknown origin) using S-2222 as substrate; type: protein assay

Structure (SMILES) | Ratio [1] | further results
COc1cc(C(=O)Nc2cc(C(N)=O)ccc2NC(=O)c2ccn(-c3ccccc3)c(=O)c2)cc(OC)c1OC | 2.1 | 
COc1cc(C(=O)Nc2cc(C(N)=O)ccc2NC(=O)c2ccc(-n3ccccc3=O)cc2)cc(OC)c1OC | 2.06 | IC50 (Coagulation factor X): 28.6 nM
NC(=O)c1ccc(NC(=O)c2ccc(-n3ccccc3=O)cc2)c(NC(=O)c2ccc3ncoc3c2)c1 | 1.66 | 
COc1cc(C(=O)Nc2cc(C(=O)O)ccc2NC(=O)c2ccc(-n3ccccc3=O)cc2)cc(OC)c1OC | 1.15 | 
NC(=O)c1ccc(NC(=O)c2ccc(-n3ccccc3=O)cc2)c(NC(=O)c2ccc(Br)cc2)c1 |  | IC50 (Coagulation factor X): 25.9 nM
COc1ccc(C(=O)Nc2cc(C(N)=O)ccc2NC(=O)c2ccc(-n3ccccc3=O)cc2)cc1 | 1.87 | 
NC(=O)c1ccc(NC(=O)c2ccc(-n3ccccc3=O)cc2)c(NC(=O)c2ccc(Cl)cc2)c1 | 1.88 | 
NC(=O)c1ccc(NC(=O)c2ccc(-n3ccccc3=O)cc2)c(NC(=O)c2ccc(F)cc2)c1 | 1.27 | 
NC(=O)c1ccc(NC(=O)c2ccc(-n3ccccc3=O)cc2)c(NC(=O)c2ccc(Cl)c(Cl)c2)c1 |  | IC50 (Coagulation factor X): 6.5 nM

Continued, in another order:

Ratio [1] | Structure (SMILES) | further results
1.07 | COc1cc(C(=O)Nc2ccc(C(N)=O)cc2NC(=O)c2ccc(-n3ccccc3=O)cc2)cc(OC)c1OC | 
1.16 | COc1cc(C(=O)Nc2cc(C(N)=O)ccc2NC(=O)c2ccc(N3CCCCC3=O)cc2)cc(OC)c1OC | 
1.72 | CC(=O)Nc1ccc(C(=O)Nc2cc(C(N)=O)ccc2NC(=O)c2ccc(-n3ccccc3=O)cc2)cc1 | IC50 (Coagulation factor X): 15.6 nM
1.54 | NC(=O)c1ccc(NC(=O)c2ccc(-n3ccccc3=O)cc2)c(NC(=O)c2ccc(NC=O)cc2)c1 | 
1.33 | NC(=O)c1ccc(NC(=O)c2ccc(-n3ccccc3=O)cc2)c(NC(=O)c2ccc(Cl)s2)c1 | 
1.21 | CCOC(=O)c1ccc(NC(=O)c2ccc(-n3ccccc3=O)cc2)c(NC(=O)c2cc(OC)c(OC)c(OC)c2)c1 | 
1.27 | COc1cc(C(=O)Nc2cc(C(N)=O)ccc2NC(=O)c2ccc(N3CCCC3=O)cc2)cc(OC)c1OC | 
1.27 | NC(=O)c1ccc(NC(=O)c2ccc(-n3ccccc3=O)cc2)c(NC(=O)c2ccc(Cl)nc2)c1 | 
1.94 | COc1ccc(C(=O)Nc2cc(C(N)=O)ccc2NC(=O)c2ccc(-n3ccccc3=O)cc2)cc1OC | IC50 (Coagulation factor X): 17.1 nM; IC50 (Prothrombin): > 100000 nM; IC50 (Trypsin): > 100000 nM
